Test results reported in US20250154154A1 (Relay Binney Street, 2nd Floor, priority 2020, published 2025).

Legend:
[1] = tested on: RBE cells; assay: Cell Viability Protocol (CellTiterGlo), RBE cells; format: cell-based; conditions: RBE or SNU-1079 cells, 72 or 120 hour, cell line and time not given
Outline: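 RBE cells plated at 1200/well in RPMI 1640 with 10% FBS, incubated 24 h, then dosed with compound from DMSO stocks and incubated 72 or 120 h at 37° C. CellTiterGlo luminescence normalised to DMSO control; IC50 from 4-parameter fit.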

[2] = biological target: SRC (Homo sapiens, UniProt P12931); assay: SRC Biochemical Assay Protocol (microfluidic mobility shift assay, FLPeptide4 substrate)
Chain of SRC (P12931 whole entry, species assumed): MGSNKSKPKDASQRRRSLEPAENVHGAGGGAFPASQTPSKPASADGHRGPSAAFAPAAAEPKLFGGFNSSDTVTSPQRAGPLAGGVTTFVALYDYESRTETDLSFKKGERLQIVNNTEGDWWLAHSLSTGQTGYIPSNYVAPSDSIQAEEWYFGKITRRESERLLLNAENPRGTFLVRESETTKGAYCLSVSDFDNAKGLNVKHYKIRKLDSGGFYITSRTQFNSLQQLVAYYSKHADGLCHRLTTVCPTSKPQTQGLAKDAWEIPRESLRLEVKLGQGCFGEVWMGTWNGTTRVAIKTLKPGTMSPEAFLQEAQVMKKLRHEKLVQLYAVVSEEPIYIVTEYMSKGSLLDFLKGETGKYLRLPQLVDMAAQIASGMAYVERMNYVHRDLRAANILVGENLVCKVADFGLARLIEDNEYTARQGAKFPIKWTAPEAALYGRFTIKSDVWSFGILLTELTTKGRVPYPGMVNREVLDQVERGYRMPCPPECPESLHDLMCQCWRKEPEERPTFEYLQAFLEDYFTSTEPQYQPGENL
Outline: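 Recombinant SRC (0.26 nM) preincubated 30 min at RT with compound (0.0017–100 μM) and 1.5 μM FLPeptide4, then 50 μM ATP added; 90 min reaction in HEPES pH 7.4, 10 mM MgCl2, 1% DMSO, EDTA-quenched. Phosphopeptide quantified by microfluidic mobility shift; IC50 from 4-parameter logistic fit.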

[3] = tested on: phospho-S6RP (Ser 235/236) in RBE cells; assay: Cellular Proliferation Protocol (cellular phospho-S6RP HTRF), RBE cells; format: cell-based; conditions: 6 hours treatment, RBE or SNU-1079 cells, cell line not given
Outline: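 RBE cells, 2000/well, seeded 24 h before 6 h compound treatment at 37° C. Lysates were probed with a Eu-cryptate/d2 HTRF antibody sandwich for phospho-S6RP (Ser 235/236), incubated overnight at room temperature. Signal normalised to DMSO control and IC50 fitted to a 4-parameter curve.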

| Structure (SMILES) | IC50 [2] | IC50 [1] | IC50 [3] | IC50 ([3]; 6 h) |
| --- | --- | --- | --- | --- |
| C=CC(=O)N1CC[C@@H](N2CC(C#Cc3c(-c4ccc(Cl)c(OC)c4)c4c(N)ncnc4n3CCOC)C2)[C@@H](O)C1 [II-56] | 10 to 1000 nM | 10 to 1000 nM | 10 to 1000 nM | – |
| C=CC(=O)N1C[C@@H]2[C@@H](C#Cc3c(-c4ccc(Oc5cnccn5)cc4)c4c(N)ncnc4n3C)[C@@H]2C1 [II-22] | 10 to 1000 nM | 10 to 1000 nM | 10 to 1000 nM | – |
| C=CC(=O)N1CC[C@@H](N2CC(C#Cc3c(-c4ccc(Cl)c(F)c4)c4c(N)ncnc4n3C)C2)[C@@H](O)C1 [II-66] | 10 to 1000 nM | 10 to 1000 nM | 10 to 1000 nM | – |
| C=CC(=O)N1CCC(N2CC(C#Cc3c(-c4ccc(Oc5ccccc5)cc4OC)c4cncnc4n3C)C2)CC1 [II-30] | 1000 to 10000 nM | 10 to 1000 nM | – | 10 to 1000 nM |
| C=CC(=O)N1CCC(C#Cc2c(-c3ccc(Oc4ccccc4)cc3)c3c(N)ncnc3n2C(C)C(=O)OC)CC1 (stereo not drawn) [Example I-42] | 10 to 1000 nM | 10 to 1000 nM | – | 10 to 1000 nM |
| C=CC(=O)N1C[C@@H]2[C@@H](C#Cc3c(-c4ccc(Oc5cccc(C)n5)cc4OC)c4c(N)ncnc4n3CS(C)(=O)=O)[C@@H]2C1 [II-50] | 10 to 1000 nM | 1000 to 10000 nM | 1000 to 10000 nM | – |
| C=CC(=O)N1CCC(N2CC(C#Cc3c(-c4c(Cl)ccc5c4OCO5)c4cncnc4n3C)C2)CC1 [II-29] | 1000 to 10000 nM | 1000 to 10000 nM | 1000 to 10000 nM | – |

The next lines start with results.

| IC50 [2] | Structure (SMILES) | IC50 [1] | IC50 [3] | IC50 ([3]; 6 h) |
| --- | --- | --- | --- | --- |
| ≤ 10 nM | C=CC(=O)N1CCC(N2CC(C#Cc3c(-c4ccc(Cl)c(OC)c4)c4c(N)ncnc4n3C(C)C)C2)CC1 [II-86] | 10 to 1000 nM | ≤ 10 nM | – |
| ≤ 10 nM | C=CS(=O)(=O)N1CC[C@@H](N2CC(C#Cc3c(-c4ccc(Oc5ccccc5)cc4)c4c(N)ncnc4n3C)C2)[C@@H](O)C1 [II-280] | ≤ 10 nM | – | 10 to 1000 nM |
| 10 to 1000 nM | COc1cc(Oc2ccccn2)ccc1-c1c(C#C[C@@H]2[C@H]3CN(C(=O)/C=C/CN(C)C)C[C@@H]23)n(C)c2ncnc(N)c12 [II-227, (E)-1-((1R,5S,6s)-6-((4-amino-5-(2-methoxy-4-(pyridin-2-yloxy)phenyl)-7-methyl-7H-pyrrolo[2,3-d]pyrimidin-6-yl)ethynyl)-3-azabicyclo[3.1.0]hexan-3-yl)-4-(dimethylamino) but-2-en-1-one] | 10 to 1000 nM | – | 10 to 1000 nM |
| 10 to 1000 nM | C=CC(=O)N1CC[C@@H](N2CC(C#Cc3c(-c4ccc(C5CC5)cc4)c4c(N)ncnc4n3C)C2)[C@@H](O)C1 [II-69] | 10 to 1000 nM | 10 to 1000 nM | – |
| 10 to 1000 nM | C=CC(=O)N1CCC(N2CC(C#Cc3c(-c4ccc(Oc5ccccc5)c(OC)n4)c4c(N)ncnc4n3C)C2)CC1CO (stereo not drawn) [II-329] | 10 to 1000 nM | 10 to 1000 nM | – |
| ≤ 10 nM | CCC(=O)N1C[C@@H]2[C@@H](C#Cc3c(-c4ccc(F)c5c4OCO5)c4c(N)ncnc4n3C(C)C)[C@@H]2C1 [II-133] | 10 to 1000 nM | 10 to 1000 nM | – |
| 10 to 1000 nM | C=CC(=O)N1CCC(N2CC(C#Cc3c(-c4ccc(Oc5cccc(C)n5)cc4)c4c(N)ncnc4n3C)C2)C(O)C1 (stereo not drawn) [II-215, 1-(4-(3-((4-amino-7-methyl-5-(4-(6-methylpyridin-2-yloxy)phenyl)-7H-pyrrolo[2,3-d]pyrimidin-6-yl)ethynyl)azetidin-1-yl)-3-hydroxypiperidin-1-yl)prop-2-en-1-one] | 10 to 1000 nM | – | 10 to 1000 nM |
| 10 to 1000 nM | CCN(CC)C/C=C/C(=O)N1C[C@@H]2[C@@H](C#Cc3c(-c4ccc(Oc5ccccc5)cc4)c4c(N)ncnc4n3C)[C@@H]2C1 [II-223, (E)-1-((1R,5S,6s)-6-((4-amino-7-methyl-5-(4-phenoxyphenyl)-7H-pyrrolo[2,3-d]pyrimidin-6-yl)ethynyl)-3-azabicyclo[3.1.0]hexan-3-yl)-4-(diethylamino)but-2-en-1-one] | 10 to 1000 nM | – | 10 to 1000 nM |
| ≤ 10 nM | C=CC(=O)N1CCC(N2CC(C#Cc3c(-c4ccc(F)c5c4OCO5)c4c(N)ncnc4n3CC)C2)CC1 [II-290] | 10 to 1000 nM | – | 10 to 1000 nM |
